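Assay format: 96-well plates, 48-hour exposure. Abbreviation: GI50, concentration required for 50% inhibition of growth.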 Calls of active or inactive are those of the source. Cut-off read from the data, not from the text of the source: active = GI50 up to about 1.1 µM and inactive = higher.
What was measured:
Assay in all cases: inhibition of tumour cell growth, NCI panel, 48 h
[1] = system: ACHN
[2] = system: SNB-19
[3] = system: RPMI-8226
[4] = system: MDA-MB-231
[5] = system: IGROV-1
[6] = system: MOLT-4
[7] = system: CCRF-CEM
[8] = system: NCI-H226
[9] = system: SK-MEL-5
[10] = system: SN12C
[11] = system: U-251
[12] = system: OVCAR-4
[13] = system: CAKI-1
[14] = system: UACC-257
[15] = system: BT-549
[16] = system: COLO 205
[17] = system: NCI/ADR-RES
[18] = system: SF-295
[19] = system: 786-0
[20] = system: Hs-578T

Measured: GI50

CC1=C(C(=O)OCCO[N+](=O)[O-])C(c2ccccc2C(F)(F)F)C(C(=O)OC(C)C)=C(C)N1 (stereo not given)
inactive: [1] 25.7 µM | [2] 18.2 µM | [3] 5.12 µM | [4] 10.9 µM | [5] 13.1 µM | [6] 4.7 µM | [7] 27.3 µM | [8] 9.73 µM | [9] 10 µM | [10] 16.8 µM | [11] 14.6 µM | [12] 12.7 µM | [13] 11.4 µM | [14] 11.2 µM | [15] 13.5 µM | [16] 14 µM | [17] 14.3 µM | [18] 11.8 µM | [19] 15 µM

CN(C)S(=O)(=O)n1cnc(CO)c1
inactive: [1] > 100 µM | [2] > 100 µM | [3] > 100 µM | [4] > 100 µM | [5] > 100 µM | [6] > 100 µM | [8] > 100 µM | [9] > 100 µM | [10] > 100 µM | [11] > 100 µM | [12] > 100 µM | [13] > 100 µM | [14] > 100 µM | [15] > 100 µM | [16] > 100 µM | [17] > 100 µM | [18] > 100 µM | [19] > 100 µM

COc1ccc(Oc2nc(C#CC(C)(C)O)nc(Oc3ccc(OC)cc3)n2)cc1
inactive: [1] 1.69 µM | [20] 16.4 µM | [2] 20 µM | [4] 2.88 µM | [5] 5.45 µM | [6] 1.53 µM | [7] 1.43 µM | [9] 14.5 µM | [10] 13.9 µM | [11] 3.82 µM | [12] 1.79 µM | [13] 3.67 µM | [14] 17.9 µM | [15] 14.9 µM | [16] 3.59 µM | [17] 18.9 µM | [18] 16.7 µM

S=c1[nH]nc(COc2ccc3c(c2)CCCC3)n1/N=C/c1ccc(Cl)cc1
inactive: [1] 20.1 µM | [20] 21.6 µM | [2] 19.5 µM | [3] 17.3 µM | [4] 24.1 µM | [5] 16.4 µM | [6] 19.4 µM | [7] 32.1 µM | [9] 15.7 µM | [10] 22.8 µM | [11] 19.1 µM | [12] 18.1 µM | [13] 18.6 µM | [14] 22.6 µM | [15] 17 µM | [16] 16.6 µM | [17] 17.6 µM | [18] 17.8 µM

CCP(=O)(CC)C(Cl)(Cl)C(=O)NC
inactive: [1] > 100 µM | [20] > 100 µM | [2] > 100 µM | [3] > 100 µM | [4] > 100 µM | [5] > 100 µM | [6] > 100 µM | [7] > 100 µM | [8] > 100 µM | [9] > 100 µM | [10] > 100 µM | [11] > 100 µM | [12] > 100 µM | [13] > 100 µM | [14] > 100 µM | [16] > 100 µM | [17] > 100 µM | [18] > 100 µM

CCOC(=O)CCC(NC(=O)OCc1ccccc1)C(=O)NC(CCC(=O)OCC)C(=O)NC(CCC(=O)OCC)C(=O)NC(CCC(=O)OCC)C(=O)NC(CCC(=O)OCC)C(=O)NC(CCC(=O)OCC)C(=O)NC(CCC(=O)OCC)C(=O)OCC (stereo not given)
inactive: [1] > 100 µM | [2] > 100 µM | [3] > 100 µM | [4] > 100 µM | [6] > 100 µM | [7] 72.9 µM | [8] > 100 µM | [9] > 100 µM | [10] > 100 µM | [11] > 100 µM | [12] > 100 µM | [13] > 100 µM | [14] > 100 µM | [15] > 100 µM | [19] > 100 µM

CCCCN(CCCC)C1=Nc2ccccc2-n2c(nnc2C(=O)OCC)C1
inactive: [1] 38.3 µM | [20] > 100 µM | [2] 91.2 µM | [3] 26.1 µM | [4] 38.1 µM | [5] 35.9 µM | [6] 27 µM | [7] 43.5 µM | [8] 50.6 µM | [9] 15.1 µM | [10] 51.1 µM | [12] 61.8 µM | [13] 49.9 µM | [14] 17.4 µM | [16] 18.5 µM | [17] 39.2 µM | [18] 44.7 µM | [19] 73.1 µM

C/C(=C/C(=O)N(C)c1ccccc1Cl)O[Si](C(C)C)(C(C)C)C(C)C
inactive: [1] > 10 µM | [2] 23.7 µM | [3] 24.8 µM | [4] 22.4 µM | [5] 23.1 µM | [6] 40.4 µM | [8] 15.8 µM | [9] 16.4 µM | [10] 17 µM | [11] 20 µM | [12] 61.2 µM | [13] 40.7 µM | [14] 24.8 µM | [15] 22.5 µM | [16] 16.8 µM | [17] 19.9 µM | [18] 21.8 µM | [19] 18.1 µM

O=c1[nH]nc(NNc2ccccc2)c2nnn(C3CCCCC3)c12
inactive: [1] > 100 µM | [2] > 100 µM | [3] > 100 µM | [4] > 100 µM | [6] > 100 µM | [7] > 100 µM | [9] > 100 µM | [10] > 100 µM | [11] > 100 µM | [12] > 100 µM | [13] > 100 µM | [14] > 100 µM | [15] > 100 µM | [16] > 100 µM | [17] > 100 µM | [18] > 100 µM

CS(=O)(=O)OCC(CCl)(CCl)CCl
inactive: [1] > 100 µM | [20] > 100 µM | [2] > 100 µM | [4] > 100 µM | [6] > 100 µM | [7] > 100 µM | [8] > 100 µM | [9] > 100 µM | [10] > 100 µM | [11] > 100 µM | [12] > 100 µM | [14] > 100 µM | [16] > 100 µM | [17] > 100 µM | [18] > 100 µM

CNC(C)C(O)c1ccc2oc3cc(=O)c4ccccc4c-3nc2c1 (stereo not given)
inactive: [1] 6.25 µM | [20] 2.26 µM | [2] 6.44 µM | [3] 18.9 µM | [4] 45.5 µM | [5] 31.5 µM | [6] 19.4 µM | [7] 5.52 µM | [9] 2.48 µM | [10] 10.6 µM | [11] 4.34 µM | [12] 17.3 µM | [13] 16.1 µM | [14] 5.37 µM | [15] 7.76 µM | [16] 35.9 µM | [17] 14.4 µM | [18] 4.59 µM

Source: ChEMBL document CHEMBL1201862, “PubChem BioAssay data set” (2004)
